Earlier results, collected in patent US20100056645A1, “Chromatographic Media and Chromatographic Equipment Storage Solutions and Use Thereof” (priority 2007, published 2010).

Tested on: gram positive bacteria

OCc1ccccc1 [benzyl alcohol]
pH of optimal bactericidal activity: < 5.0
